Earlier results, collected in US7879374B2, “Composition including superoxide dismutase and prickly-pear cactus for minimizing and preventing hangovers” (priority 2005, dated 2011).

Columns and labels:
[1] = tested on: hepatic metabolizing enzymes for lipids and alcohol
[2] = rat, in vivo, po
[3] = recent study of one-hundred twenty young females
[4] = by speeding the use of fat during exercise
[5] = liver of rats given sesamin vs vehicle

Compound: c1cc2c(cc1[C@H]1OC[C@H]3[C@@H]1CO[C@@H]3c1ccc3c(c1)OCO3)OCO2 [Sesamin]
- gene expression levels of the late stage enzymes of beta-oxidation (trifunctional enzyme, acyl-CoA oxidase, bifunctional enzyme, 3-ketoacyl-CoA thiolase) [1, 5]: significantly increased
- gene expression of alcohol dehydrogenase [1, 5]: not changed
- gene expression of aldehyde dehydrogenase [1, 5]: about 3 fold
- gene expression of liver catalase [1, 5]: not changed
- transcription of the genes encoding the enzymes for fatty acid synthesis [1, 5]: decreased
- gene expression of CYP2E1 ([1]; rat, in vivo): not changed
- dose of sesamin detected in bile as glucuronides of catechol metabolites [2]: Over 40 % of the dose

Compound: Cc1ncc(C[n+]2csc(CCO)c2C)c(N)n1 [Thiamin]
- effects on mood and cognitive functioning [3]: positive effects

Compound: Cn1c(=O)c2c(ncn2C)n(C)c1=O [Caffeine]
- increase in endurance [4]: about fifteen
